Data from US10322187B2, “Reduced toxicity molecular conjugates of anti-fungal agents” (Lehigh University, priority 2015, dated 2019).
In brackets after ≈: the same amount, converted by molar mass. Entries after “also recorded” stand apart in the source; their conditions may differ. Where two headings read alike, the source gives them in different places.

Legend:
[1] = tested on: C. albicans, C. glabrata, C. neoformans, and C. gatti; assay: In vitro antifungal activity, general statements on the four microbes; type: cell-based; settings: on a molar basis
Description: (§1) A similar sequence of reactions was carried out using lysine dicholamide in place of cholic acid afforded VJ-1147 of Table 2. To assess the antifungal properties of the diwalled VJ-1138 (Table 2) and 2a of Table 3, their in vitro activities were examined against four clinically relevant microbes, i.e., C. albicans, C. glabrata, C. neoformans, and C. gatti (Table 4).
(§2) Minimum inhibitory concentrations (MIC) and minimum fungicidal concentrations (MFC) are the lowest concentrations that are required for completely inhibiting growth, and killing at least 99% of the fungi, respectively.

C. gatti = assay: Antifungal activities, MIC/MFC; type: cell-based; settings: C. gatti
Description: as §1, §2
(§3) The above molecules were tested for antifungal activity. Minimum inhibitory concentrations (MIC) and minimum fungicidal concentrations (MFC) are the lowest concentrations that are required for completely inhibiting growth, and killing at least 99% of the fungi, respectively. As is apparent from Table 4 below, there is a general trend; i.e., increased antifungal activity is observed as the length of the hydrocarbon chain that separates the facial amphiphile from the Amphotericin B moiety is decreased.

C. glabrata = assay: Antifungal activities, MIC/MFC; type: cell-based; settings: C. glabrata
Description: as §1, §2, §3

C. neoformans = assay: Antifungal activities, MIC/MFC; type: cell-based; settings: C. neoformans
Description: as §1, §2, §3

C. albicans = assay: Antifungal activities, MIC/MFC; type: cell-based; settings: C. albicans
Description: as §1, §2, §3

Cryptococcus neoformans = assay: Cryptococcosis mouse model, brain and lung tissue burden; type: in vivo, mice
Description: Cryptococcosis mice are infected via tail vein injection of 5×10^4 C. neoformans cells. Inocula are verified by quantitative culture. Animals are identified by temporary ink marking, assigned to groups of 10 mice. Test compounds will be dosed starting on the day of infection. Initial studies will employ i.v., i.p. or oral (gavage) dosing (depending on the compound and the vehicle). Antifungal compounds are given for a period of 7 days. […] On day 8, the lung and brain are evaluated by quantitative culture per gram of tissue, by weighing organs and culturing serially diluted homogenates. These tissue burden studies permit detection of drug efficacy that may not be evident by using a survival endpoint.
The mice were then sacrificed 7 days later for quantitative culture of brain and lung, with cryptococcal cells per gram tissue being expressed as logarithmic values (log 10). Mean values for each group were compared using the t-test.

sheep red blood cells = assay: Hemolysis measurements, release of hemoglobin; type: cell-based
Description: Sheep Red Blood Cells, 10%, in saline (Innovative Research, Novi, Mich.), were diluted in saline (pH 7.4) to a concentration of 4%, which corresponds to 4×10^7 cells/mL. All measurements were carried out in duplicate. Solutions of Amphotericin B (Sigma-Aldrich) were prepared by adding 10 μL of a DMSO solution containing a given concentration of the antibiotic (i.e., ranging from 0.2 mM to 50 mM) to 490 μL of PBS. After the resulting solution was vortex mixed for 30 seconds (s) it was incubated at 37° C. for 15 min. The resulting solution of antibiotic (500 μL) was then mixed with 500 μL of the 4% erythrocyte dispersion at 37° C. in a 1 mL plastic centrifuge vial to give a dispersion that was vortex mixed at slow rate for 5 s. After 1 h of incubation at 37° C., all samples were centrifuged (1500 g, Eppendorf centrifuge 5415C, 5000 rpm) at rt for 5 min. The supernatant (˜0.7 mL) from each plastic vial was carefully separated from sediment using a disposable glass pipette and quickly transferred to test tube. A volume of 50 μL of this supernatant was then transferred to a UV cell containing 500 μL of PBS that was maintained at 37° C. The UV spectrum was then scanned (450-650 nm) and the absorbance at 575 nm used to determine the extent of hemolysis. The extent of 0% and 100% of hemolysis was obtained from A575 values of experiments that were run in absence of AmphB (control, [A575,]o) and in presence, 100 μM AmphB ([A575]max), respectively.

[2] = Critical aggregation concentration (CAC) by UV absorptivity; type: physicochemical; settings: PBS, 37° C., absorptivity at 409 nm
Text: If one lets: (i) T, m, and P represent the total, the monomeric, and the aggregate concentrations of this macrolide, respectively; (ii) ε represent the apparent molar absorptivity; and (iii) εm and εp represent the molar absorptivity for the monomeric and aggregate components, respectively, then it can be shown that ε=εp+(εm−εp)m/T. See Yamashita K, Janout V, Bernard E M, Armstrong D, and Regen, S L. Micelle/monomer control over the membrane disrupting properties of an amphiphilic antibiotic. J. Am. Chem. Soc. 117 (1995) 6249-6253. At concentrations that are in excess of its CAC, m is constant, and ε is expected to be inversely proportional to T. Thus, by measuring the apparent molar absorptivity as a function of the reciprocal of the concentration of VJ-1138, its CAC value is estimated to be 0.9 μM (from the intercept of two straight lines).
Determination of Critical Aggregation Concentration (CAC) of AmphB and molecular conjugates. Solutions of AmphB and molecular conjugates in DMSO (Sigma-Aldrich) were prepared having a concentration of 1.00 mM. […] The UV spectrum was then recorded in the range of 250-550 nm. The absorbance at 408 nm was plotted as a function of the reciprocal value of the concentration of AmB and the critical aggregation concentration of the molecular conjugates was then determined, graphically.

HEK293T cells = assay: Inhibition of cell growth, MTT cell viability; type: cell-based, human; settings: 1, 10, 50, and 100 μM; FIG. 4
Description: Human embryonic kidney HEK293 cells were cultured in Dulbecco's modified Eagle's medium (DMEM supplemented with 10% FBS, 100 U/mL penicillin, and 0.1 mg/mL SI-10 streptomycin) in a humidified atmosphere of 5% CO2 at 37° C.
HEK293T cells were seeded in 96-well plates at a density of 6,000 cells/well and incubated overnight. Before treatment, compounds aliquots were solubilized in DMSO to obtain 10 mM stock solutions. Appropriate volumes of these stock solutions were added to DMEM media so the final concentration of DMSO is equal to 1%. After removal of cell media, 50 μL of treatment solutions were added to each well and incubated at 37° C. for 2 h. After treatment, the media was removed, and 100 μL of complete medium was added to each well before returning the plate to the incubator. Cell viability was determined after 72 h using the colorimetric MTT assay. Briefly, 10 μL of a 5 mg/mL MTT stock solution was added to the treated cells and incubated for 2 h at 37° C. The resulting formazan crystals were solubilized in 200 μL of DMSO, and the absorbance was measured at 580 nm using an Infinite 200 PRO microplate reader (Tecan). Cell viability was calculated against control cells treated with the vehicle in DMEM.

[3] = t-test, 70 mg/kg/day intraperitoneal

For `CC1OC(O[C@H]2/C=C/C=C/C=C/C=C/C=C/C=C/C=C/[C@H](C)[C@@H](O)[C@@H](C)[C@H](C)OC(=O)C[C@H](O)C[C@H](O)CC[C@@H](O)[C@H](O)C[C@H](O)C[C@]3(O)C[C@H](O)[C@@H](C(=O)NCCCCCCCC(=O)N(CCCCNC(=O)CC[C@@H](C)C4CCC5C6C(O)CC7CC(O)CCC7(C)C6CC(O)C54C)CCCNC(=O)CC[C@@H](C)C4CCC5C6C(O)CC7CC(O)CCC7(C)C6CC(O)C54C)[C@H](C2)O3)C(O)C(N)C1O` (stereo partly shown) [VJ-1138], the “antifungal potency compared with AmphB” value [1] was “approaches that of the native antibiotic; also recorded: approaching that of AmphB”, the MIC (C. gatti; Table 2, 4th value in brackets, read-out: minimum inhibitory concentration (MIC)) was 3 µM (≈ 5.92 µg/mL) and the MFC (C. gatti; first Table 4, read-out: MFC) was 2 µM (≈ 3.95 µg/mL). The MIC (C. gatti; first Table 4, read-out: MIC) was 1 µM (≈ 1.97 µg/mL), the MIC (C. glabrata; Table 2, 2nd value in brackets, read-out: minimum inhibitory concentration (MIC)) was 4 µM (≈ 7.89 µg/mL) and the MFC (C. glabrata; first Table 4) was 4 µM (≈ 7.89 µg/mL). For the same molecule, the MIC (C. glabrata; first Table 4, read-out: MIC) was 2 µM (≈ 3.95 µg/mL), the MIC (C. neoformans; Table 2, 3rd value in brackets, read-out: minimum inhibitory concentration (MIC)) was 2 µM (≈ 3.95 µg/mL) and the MFC (C. neoformans; first Table 4, read-out: MFC) was 2 µM (≈ 3.95 µg/mL). For the same molecule, the MIC (C. neoformans; first Table 4, read-out: MIC) was 1 µM (≈ 1.97 µg/mL), the MIC (C. albicans; Table 2, 1st value in brackets, read-out: minimum inhibitory concentration (MIC)) was 2 µM (≈ 3.95 µg/mL) and the MIC (C. albicans; first Table 4, lowest concentration completely inhibiting growth, read-out: MIC) was 1 µM (≈ 1.97 µg/mL). The MFC (C. albicans; first Table 4, lowest concentration killing at least 99% of the fungi, read-out: MFC) was 2 µM (≈ 3.95 µg/mL), the mean lung burden (Cryptococcus neoformans; CD1 male mice, intraperitoneal DMSO solution, 70 mg/kg/day, 7 days, untreated 6.34) was 5.10 log 10 cryptococcal cells per and the mean brain burden (Cryptococcus neoformans; CD1 male mice, intraperitoneal DMSO solution, 70 mg/kg/day, 7 days, untreated 8.22) was 7.66 log 10 cryptococcal cells per. The “p, brain tissue burden compared to untreated mice” value (Cryptococcus neoformans; [3]) was 0.0083, the “p, lung tissue burden compared to untreated mice” value (Cryptococcus neoformans; [3]) was under 0.0001 and the “EH50 relative to AmphB” value (sheep red blood cells) was “approximately 2 orders of magnitude”. The “hemolytic activity relative to AmphB” value (sheep red blood cells) was “dramatically reduced”, the “EH50, concentration required to induce 50% release of hemoglobin from erythrocytes” value (sheep red blood cells; pH 7.4) was 375 µM and the “critical aggregation concentration (CAC)” value [2] was 0.9 µM. For the same molecule, the “toxicity toward HEK293t cells compared with AmphB” value (HEK293T cells) was “dramatically reduced”.
